Results as given in patent US20230095836A1, “SUBSTITUTED 5,6-DIPHENYL-3(2H)-PYRIDAZINONES FOR USE AS FUNGICIDES” (FMC Corporation, priority 2020, published 2023).

How the values were obtained:
Format in all cases: in vivo
[1] = test system: Zymoseptoria tritici; assay: Test A: test solution sprayed on wheat seedlings, inoculated next day with Zymoseptoria tritici (wheat leaf blotch); disease rating (100 = 100% disease control, 0 = no control; dash = not tested)
Method in brief: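 Preventive spray test: compound applied to run-off one day before spore inoculation of wheat seedlings. Incubation was 48 h saturated humidity at 24° C followed by 17 days at 20° C. Disease then scored 0–100 as % control versus untreated plants.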

[2] = test system: Puccinia recondita f. sp. tritici; assay: Test B: test solution sprayed on wheat seedlings, inoculated next day with Puccinia recondita f. sp. tritici (wheat leaf rust); disease rating (100 = 100% disease control, 0 = no control; dash = not tested)
Description: The resulting test suspensions were then used in Tests A-F. The test solution was sprayed to the point of run-off on wheat seedlings. […] A rating of 100 indicates 100% disease control and a rating of 0 indicates no disease control (relative to the controls). A dash (—) indicates the compound was not tested.

[3] = test system: Blumeria graminis f. sp. tritici; assay: Test C: test suspension sprayed on wheat seedlings, inoculated next day with Blumeria graminis f. sp. tritici (wheat powdery mildew); visual disease rating (100 = 100% disease control, 0 = no control; dash = not tested)
Method in brief: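 Visual ratings of disease control (0–100, relative to controls) were made 8 days after inoculation with B. graminis f. sp. tritici spore dust. Plants were held at 20 °C. Compound was applied as a spray to run-off one day before inoculation.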

[4] = test system: Phakopsora pachyrhizi; assay: Test D: test solution sprayed on soybean seedlings, inoculated next day with Phakopsora pachyrhizi (Asian soybean rust); visual disease rating (100 = 100% disease control, 0 = no control; dash = not tested)
Method in brief: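 Preventive spray test: soybean seedlings treated to run-off with ppm-level suspensions (acetone/water 50/50, 250 ppm PEG400), spore-inoculated one day later. Held 24 h at 22 °C in saturated air, then 8 days at 22 °C; disease control scored visually versus untreated plants, 0 = none, 100 = complete.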

[5] = test system: Botrytis cinerea; assay: Test E: test suspension sprayed on tomato seedlings, inoculated next day with Botrytis cinerea (tomato Botrytis); visual disease rating (100 = 100% disease control, 0 = no control; dash = not tested)
Method in brief: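 Spores were applied one day after spraying the seedlings to run-off. Incubation was 48 h saturated at 20° C, then 3 days in a 24° C growth chamber. Visual ratings, relative to untreated controls, run from 0 (no control) to 100 (complete control).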

[6] = test system: Alternaria solani; assay: Test F: test suspension sprayed on tomato seedlings, inoculated next day with Alternaria solani (tomato early blight); visual disease rating (100 = 100% disease control, 0 = no control; dash = not tested)
Method in brief: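 Visual ratings of % disease control versus controls were made after inoculated plants spent 48 h at 27° C. in saturated air plus 3 days at 20° C. The compound suspension had been sprayed to run-off one day before spore inoculation.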

| Structure (SMILES) | Test A disease control rating ([1]; 50 ppm) | Test B disease control rating ([2]; 50 ppm) | Test C disease control rating ([3]; 50 ppm) | Test D disease control rating ([4]; 50 ppm) | Test E disease control rating ([5]; 50 ppm) | Test F disease control rating ([6]; 50 ppm) | also measured |
| --- | --- | --- | --- | --- | --- | --- | --- |
| Cn1nc(-c2ccc(F)cc2Cl)c(-c2ccc(F)cc2Cl)c(CF)c1=O [Compound 171] | 99% | 99% | 99% | 0% | 100% | 96% | – |
| COc1cc(F)c(Br)c(-c2nn(C)c(=O)c(OC)c2-c2ccc(F)cc2Cl)c1 [Compound 165] | 100% | 100% | 99% | 92% | 95% | 100% | – |
| Cn1nc(-c2cccc(F)c2Cl)c(-c2c(F)cccc2F)cc1=O [Compound 29] | – | – | – | – | – | – | Test A disease control rating ([1]; 250 ppm): 100%; Test B disease control rating ([2]; 250 ppm): 98%; Test C disease control rating ([3]; 250 ppm): 99%; Test D disease control rating ([4]; 250 ppm): 25%; Test E disease control rating ([5]; 250 ppm): 100%; Test F disease control rating ([6]; 250 ppm): 0% |
| COc1cc(OC)c(Br)c(-c2nn(C)c(=O)c(Br)c2-c2ccc(F)cc2Cl)c1 [Compound 61] | 100% | 100% | 94% | 99% | 100% | 99% | – |
| COc1cc(C#N)cc(-c2cc(=O)n(C)nc2-c2cc(C#N)cc(OC)c2)c1 [Compound 204] | 2% | 0% | 0% | 39% | 0% | 0% | – |
| CCc1c(-c2c(F)cccc2F)c(-c2cccc(OC)c2Cl)nn(C)c1=O [Compound 178] | 100% | 100% | 100% | 100% | 93% | 100% | – |
| COc1cc(-c2nn(C)c(=O)cc2-c2ccc(F)cc2Cl)cc(OC)c1Cl [Compound 203] | 0% | 0% | 0% | 0% | 31% | 0% | – |
| COc1ccc(Cl)c(C2=NN(C)C(=O)CC2c2c(F)cccc2F)c1 (stereo not drawn) [Compound 207] | 79% | 68% | 90% | 0% | 100% | 0% | – |
| CCOC(=O)c1c(-c2ccc(F)cc2Cl)c(-c2ccc(F)cc2Cl)nn(C)c1=O [Compound 153] | – | – | – | – | – | – | Test A disease control rating ([1]; 250 ppm): 0%; Test B disease control rating ([2]; 250 ppm): 0%; Test C disease control rating ([3]; 250 ppm): 96%; Test D disease control rating ([4]; 250 ppm): 71%; Test E disease control rating ([5]; 250 ppm): 0%; Test F disease control rating ([6]; 250 ppm): 0% |
| COc1cc(OC)cc(-c2nn(C)c(=O)cc2-c2ccc(F)cc2Cl)c1 [Compound 18] | – | – | – | – | – | – | Test A disease control rating ([1]; 250 ppm): 99%; Test B disease control rating ([2]; 250 ppm): 98%; Test C disease control rating ([3]; 250 ppm): 96%; Test D disease control rating ([4]; 250 ppm): 0%; Test E disease control rating ([5]; 250 ppm): 99%; Test F disease control rating ([6]; 250 ppm): 0% |
| Cn1nc(-c2cc(F)ccc2Cl)c(-c2c(F)cccc2F)cc1=O [Compound 28] | – | – | – | – | – | – | Test A disease control rating ([1]; 250 ppm): 100%; Test B disease control rating ([2]; 250 ppm): 100%; Test C disease control rating ([3]; 250 ppm): 100%; Test D disease control rating ([4]; 250 ppm): 0%; Test E disease control rating ([5]; 250 ppm): 100%; Test F disease control rating ([6]; 250 ppm): 0% |
| COc1ccc(Cl)c(-c2nn(C)c(=O)c(OC)c2-c2ccc(F)cc2Cl)c1 [Compound 101] | 100% | 100% | 99% | 100% | 99% | 99% | – |
| Cn1nc(-c2cc(C#N)ccc2Cl)c(-c2ccc(F)cc2Cl)c(Cl)c1=O [Compound 49] | 100% | 100% | 98% | 96% | 96% | 99% | – |
| COc1cc(OC)c(Br)c(-c2nn(C)c(=O)c(Cl)c2-c2ccc(F)cc2Cl)c1 [Compound 77, 6-(2-bromo-3,5-dimethoxyphenyl)-4-chloro-5-(2-chloro-4-fluorophenyl)-2-methyl-3(2H)-pyridazinone] | – | – | – | – | – | – | pest or weed control at 50 ppm ([1]; 50 ppm): 100%; pest or weed control at 50 ppm ([2]; 50 ppm): 100%; pest or weed control at 50 ppm ([3]; 50 ppm): 99%; pest or weed control at 50 ppm ([4]; 50 ppm): 100%; pest or weed control at 50 ppm ([5]; 50 ppm): 97%; pest or weed control at 50 ppm ([6]; 50 ppm): 100% |
| CCn1nc(-c2ccc(F)cc2Cl)c(-c2ccc(F)cc2Cl)c(C#N)c1=O [Compound 7] | – | – | – | – | – | – | Test A disease control rating ([1]; 250 ppm): 98%; Test B disease control rating ([2]; 250 ppm): 74%; Test C disease control rating ([3]; 250 ppm): 0%; Test D disease control rating ([4]; 250 ppm): 0%; Test E disease control rating ([5]; 250 ppm): 99%; Test F disease control rating ([6]; 250 ppm): 0% |
| Cn1nc(-c2ccccc2Cl)c(-c2ccc(F)cc2Cl)c(Cl)c1=O [Compound 73] | 100% | 100% | 99% | 97% | 99% | 99% | – |
| COc1cc(OC)cc(-c2nn(C)c(=O)c(Br)c2-c2ccc(F)cc2Cl)c1 [Compound 67] | 99% | 100% | 95% | 98% | 99% | 99% | – |
| Cc1ccc(Cl)c(-c2nn(C)c(=O)c(C)c2-c2ccc(F)cc2Cl)c1 [Compound 136, 5-(2-chloro-4-fluorophenyl)-6-(2-chloro-5-methylphenyl)-2,4-dimethyl-3(2H)-pyridazinone] | – | – | – | – | – | – | pest or weed control at 50 ppm ([1]; 50 ppm): 99%; pest or weed control at 50 ppm ([2]; 50 ppm): 100%; pest or weed control at 50 ppm ([3]; 50 ppm): 100%; pest or weed control at 50 ppm ([4]; 50 ppm): 97%; pest or weed control at 50 ppm ([5]; 50 ppm): 95%; pest or weed control at 50 ppm ([6]; 50 ppm): 40% |
| CCc1c(-c2c(F)cccc2F)c(-c2cc(OC)cc(F)c2Cl)nn(C)c1=O [Compound 180] | 100% | 100% | 100% | 100% | 99% | 100% | – |
| Cn1nc(-c2ccccc2F)c(-c2ccc(F)cc2Cl)c(Cl)c1=O [Compound 72] | 100% | 99% | 99% | 75% | 98% | 99% | – |
| Cn1nc(-c2ccccc2Cl)c(-c2ccc(F)cc2Cl)c(O)c1=O [Compound 182] | 0% | 0% | 0% | 0% | 0% | 0% | – |
